In brackets after ≈: the same amount, converted by molar mass. Several values for one entry are separate records, joined by “and”; a condition that tells them apart may be missing. Equal entries are not always repeated. Where two headings read alike, the source gives them in different places.
Legend:
Mtb H37Ra = test: In vitro antimycobacterial activity, Microplate Alamar Blue Assay (MABA); format: cell-based, Mycobacterium tuberculosis; conditions: for MIC: Mycobacterium tuberculosis, H37RA, read-out: MIC Mtb H37Ra; for SI (selectivity index): IC50 HepG2 (µM)/MIC Mtb H37Ra (µM); for MIC Mtb H37Ra: MABA, pH of testing medium 6.6
M. smegmatis = test: In vitro antimycobacterial activity, MABA; format: cell-based, Mycobacterium smegmatis; conditions: Mycolicibacterium smegmatis, read-out: MIC M. smeg
M. aurum = test: In vitro antimycobacterial activity, MABA; format: cell-based, Mycobacterium aurum; conditions: Mycolicibacterium aurum, read-out: MIC M. aurum
HepG2 cell line = test: In vitro cytotoxicity, CellTiter 96 (MTS); format: cell-based; conditions: Homo sapiens, HepG2; cytotoxicity, 24 h incubation, CellTiter 96; read-out: HepG2 IC50
E. faecalis = test: In vitro antibacterial activity, microdilution broth (EUCAST); format: cell-based; conditions: Enterococcus faecalis; 48 h; standards; read-out: MIC Enterococcus faecalis
S. epidermidis = test: as above; format: cell-based; conditions: Staphylococcus epidermidis; 48 h; standards; read-out: MIC Staphylococcus epidermidis
E. coli = test: as above; format: cell-based; conditions: Escherichia coli; 48 h; standards; read-out: MIC Escherichia coli
P. aeruginosa = test: as above; format: cell-based; conditions: Pseudomonas aeruginosa; 48 h; standards; read-out: MIC Pseudomonas aeruginosa
S. marcescens = test: as above; format: cell-based; conditions: Serratia marcescens; 48 h; standards; read-out: MIC Serratia marcescens
S. aureus = test: as above; format: cell-based; conditions: Staphylococcus aureus; 48 h; standards; read-out: MIC Staphylococcus aureus
K. pneumoniae = test: as above; format: cell-based; conditions: Klebsiella pneumoniae; 48 h; standards; read-out: MIC Klebsiella pneumonia

SMILES	MIC (Mtb H37Ra)	MIC (M. smegmatis; MABA)	MIC (M. aurum; MABA)	IC50 (HepG2 cell line)	SI (selectivity index) (Mtb H37Ra)	further results
O=C(NCc1ccc(Cl)cc1Cl)c1cnc2ccccc2n1 [Compound 30]	≥ 500 µg/mL	≥ 125 µg/mL	≥ 125 µg/mL	> 100 µM		
O=C(Nc1ccc(F)cc1)c1cnc2ccccc2n1 [Compound 9]	15.6 µg/mL and 58.5 µM	≥ 500 µg/mL	≥ 500 µg/mL	> 100 µM	>1.71	
O=C(NCc1cccc(O)c1)c1cnc2ccccc2n1 [Compound 16]	31.2 µg/mL and 112 µM	62.5 µg/mL	≥ 500 µg/mL	601 µM	5.40	MIC (M. smegmatis): 237 µM
COc1ccc(NC(=O)c2nccnc2C(=O)O)cc1 [C00007 R=4-OCH3, reference compound]	≥ 500 µg/mL					
CO[C@H]1/C=C/O[C@@]2(C)Oc3c(C)c(O)c4c(O)c(c(/C=N/N5CCN(C)CC5)c(O)c4c3C2=O)NC(=O)/C(C)=C\C=C\[C@H](C)[C@H](O)[C@@H](C)[C@@H](O)[C@@H](C)[C@H](OC(C)=O)[C@@H]1C [RIF, rifampicin, reference compound]	0.00313 µg/mL and 0.0038 µM			> 500 µM		MIC (M. smegmatis): 12.5 µg/mL; MIC (M. aurum): 0.39 µg/mL
O=C(NCc1ccccc1)c1cnc2ccccc2n1 [Compound 15]	15.6 µg/mL and 59.3 µM	≥ 125 µg/mL	≥ 125 µg/mL	> 1000 µM	>17	MIC Mtb H37Ra (Mtb H37Ra): 15.625 (15) µg/mL
O=C(Nc1ccc(O)cc1)c1cnc2ccccc2n1 [Compound 3]	62.5 µg/mL and 236 µM	≥ 500 µg/mL	≥ 500 µg/mL	> 250 µM	>1.01	
COc1cc(NC(=O)c2cnc3ccccc3n2)cc(OC)c1 [Compound 4]	62.5 µg/mL and 202 µM	≥ 125 µg/mL	≥ 125 µg/mL	> 25 µM	>0.12	
O=C(NCCCc1ccccc1)c1cnc2ccccc2n1 [Compound 33, N-phenylpropylquinoxaline-2-carboxamide]	15.6 µg/mL and 53.6 µM	≥ 500 µg/mL	≥ 500 µg/mL	146 µM	2.7	
O=C(Nc1ccccc1F)c1cnc2ccccc2n1 [Compound 7]	≥ 500 µg/mL	62.5 µg/mL	≥ 500 µg/mL	> 100 µM		MIC (M. smegmatis): 234 µM
COc1ccc(NC(=O)c2cnc3ccccc3n2)cc1 [Compound 5]	≥ 125 µg/mL	≥ 125 µg/mL	≥ 125 µg/mL	> 50 µM		
O=C(NCc1cccc(F)c1)c1cnc2ccccc2n1 [Compound 21]	7.81 µg/mL and 27.8 µM	≥ 500 µg/mL	≥ 500 µg/mL	248 µM	8.92	
O=C(NCc1ccccc1Cl)c1cnc2ccccc2n1 [Compound 25]	15.6 µg/mL and 52.5 µM			528 µM		MIC (M. smegmatis): ≥ 500 µg/mL; MIC (M. aurum): ≥ 500 µg/mL
O=C(NCc1cccc(C(F)(F)F)c1)c1cnc2ccccc2n1 [Compound 28]	3.91 µg/mL and 11.8 µM	250 µg/mL	≥ 500 µg/mL	48.6 µM	4.12	MIC Mtb H37Ra (Mtb H37Ra): 3.91 (28) µg/mL
O=C(NCCc1ccccc1)c1cnc2ccccc2n1 [Compound 32, N-phenethylquinoxaline-2-carboxamide]	≥ 500 µg/mL	≥ 500 µg/mL	≥ 500 µg/mL	> 1000 µM		
O=C(Nc1ccc(F)cc1F)c1cnc2ccccc2n1 [Compound 11]	≥ 500 µg/mL	≥ 500 µg/mL	≥ 500 µg/mL	> 250 µM		
O=C(NCc1cccc(Cl)c1)c1cnc2ccccc2n1 [Compound 26]	7.81 µg/mL and 26.2 µM	31.2 µg/mL	31.2 µg/mL	140 µM	5.34	MIC (M. smegmatis): 105 µM; MIC (M. aurum): 105 µM
O=C(NCc1ccc(O)cc1)c1cnc2ccccc2n1 [Compound 17]	62.5 µg/mL and 224 µM	≥ 500 µg/mL	500 µg/mL	> 250 µM	>1.1	
O=C(Nc1cccc(C(F)(F)F)c1)c1cnc2ccccc2n1 [Compound 14]	≥ 500 µg/mL	≥ 125 µg/mL	≥ 125 µg/mL	> 25 µM		

SMILES	MIC (Mtb H37Ra)	MIC (M. smegmatis; MABA)	MIC (M. aurum; MABA)	IC50 (HepG2 cell line)	SI (selectivity index) (Mtb H37Ra)	further results
O=C(Nc1ccccc1Cl)c1cnc2ccccc2n1 [Compound 12]	≥ 125 µg/mL	≥ 125 µg/mL	≥ 125 µg/mL	> 50 µM		
O=C(Nc1ccccc1)c1cnc2ccccc2n1 [Compound 1]	≥ 500 µg/mL	≥ 250 µg/mL	≥ 250 µg/mL	> 50 µM		
O=C(O)c1nccnc1C(=O)Nc1cccc(C(F)(F)F)c1 [C00007 R=3-CF3, reference compound]	250 µg/mL (≈ 803 µM)					
O=C(NCc1ccc(Br)cc1)c1cnc2ccccc2n1 [Compound 27]	7.81 µg/mL and 22.8 µM	≥ 500 µg/mL	≥ 500 µg/mL	> 100 µM	>4.4	
COc1ccc(OC)c(CNC(=O)c2cnc3ccccc3n2)c1 [Compound 18]	3.91 µg/mL and 12.1 µM			> 1000 µM		MIC (M. smegmatis): ≥ 500 µg/mL; MIC (M. aurum): ≥ 500 µg/mL
O=C(Nc1cccc(F)c1)c1cnc2ccccc2n1 [Compound 8]	250 µg/mL (≈ 935 µM)	≥ 500 µg/mL	≥ 500 µg/mL	> 100 µM		
O=C(NC1CCCCC1)c1cnc2ccccc2n1 [Compound 6]	31.2 µg/mL and 122 µM	31.2 µg/mL	≥ 500 µg/mL	> 1000 µM	>8.17	MIC (M. smegmatis): 122 µM
Cc1ccccc1CNC(=O)c1cnc2ccccc2n1 [Compound 23]	7.81 µg/mL and 28.2 µM	≥ 125 µg/mL	≥ 125 µg/mL	157 µM	5.60	
COc1ccc(CNC(=O)c2cnc3ccccc3n2)cc1 [Compound 20]	3.91 µg/mL and 11.8 µM			209 µM	16.1	MIC Mtb H37Ra (Mtb H37Ra): 3.91 (20) µg/mL; MIC (M. smegmatis): ≥ 250 µg/mL; MIC (M. aurum): 125 µg/mL
NNC(=O)c1ccncc1 [INH, isoniazid, reference compound]	0.25 µg/mL and 1.82 µM			> 1000 µM		MIC (M. smegmatis): 15.6 µg/mL; MIC (M. aurum): 3.91 µg/mL
O=C(Nc1cccc(Cl)c1)c1cnc2ccccc2n1 [Compound 13]	≥ 500 µg/mL	≥ 500 µg/mL	≥ 500 µg/mL	> 25 µM		
O=C(NCc1ccc(Cl)c(Cl)c1)c1cnc2ccccc2n1 [Compound 31]	7.81 µg/mL and 23.5 µM	≥ 500 µg/mL	≥ 500 µg/mL	66.9 µM	2.80	
O=C(NCc1ccc(F)cc1F)c1cnc2ccccc2n1 [Compound 22]	≥ 500 µg/mL	≥ 500 µg/mL	≥ 500 µg/mL	> 25 µM		
O=C(O)c1nccnc1C(=O)Nc1ccccc1 [C00007 R=H, reference compound]	≥ 500 µg/mL					
O=C(O)c1cn(C2CC2)c2cc(N3CCNCC3)c(F)cc2c1=O [CPX, ciprofloxacin]	0.25 µg/mL and 0.75 µM	0.125 µg/mL	0.0156 µg/mL	> 500 µM		MIC (E. faecalis): 0.512 µg/mL (≈ 1.55 µM); MIC (S. epidermidis): > 1.02 µg/mL; MIC (E. coli): 0.008 µg/mL (≈ 0.0241 µM); MIC (P. aeruginosa): 0.128 µg/mL (≈ 0.386 µM); MIC (S. marcescens): 0.256 µg/mL (≈ 0.773 µM); MIC (S. aureus): 0.128 to 0.256 µg/mL (≈ 0.386 to 0.773 µM); MIC (K. pneumoniae): > 1.02 µg/mL
CN(C)c1ccc(NC(=O)c2cnc3ccccc3n2)cc1 [Compound 10]	≥ 500 µg/mL	≥ 500 µg/mL	≥ 500 µg/mL	> 250 µM		
COc1cccc(CNC(=O)c2cnc3ccccc3n2)c1 [Compound 19]	15.6 µg/mL and 47 µM			> 1000 µM	>21.3	MIC (M. smegmatis): ≥ 500 µg/mL; MIC (M. aurum): ≥ 500 µg/mL
Cc1ccc(CNC(=O)c2cnc3ccccc3n2)cc1 [Compound 24]	7.81 µg/mL and 28.2 µM	≥ 250 µg/mL	≥ 250 µg/mL	87.7 µM	3.11	
O=C(Nc1cccc(O)c1)c1cnc2ccccc2n1 [Compound 2]	15.6 µg/mL and 58.9 µM	≥ 125 µg/mL	≥ 125 µg/mL	> 250 µM	>4.20	

— PMC8399443, “Synthesis, Biological Evaluation, and In Silico Modeling of N-Substituted Quinoxaline-2-Carboxamides” (Pharmaceuticals, 2021)
